Test results taken from US5405847A, “4,5-dihydro-4-oxo-pyrrolo[1,2-a]quinoxalinones and corresponding aza analogs and a process for their preparation” (Asta Medica Aktiengesellschaft, priority 1992, dated 1995).

Experiments:
alveolar macrophages = assay: Platelet-activating factor (Paf)-induced oxygen radical release from alveolar macrophages (guinea pig); type: cell-based; conditions: Cavia porcellus, Macrophage
Protocol: (§1) The acute toxicity of the compounds of the invention in the mouse (expressed by the LD 50 mg/kg; method after Miller and Tainter: Proc. Soc. Exper. Biol. a. Med. 57 (1944) 261) is for example above 1000 mg/kg in oral application. More detailed information on the previously mentioned test models. The figures cited relate to the compounds of the invention, in particular the compounds according to Example I.
3. Platelet-activating factor (Paf)-induced oxygen radical release from alveolar macrophages (guinea pig)

monocytes = assay: Lipopolysaccharide-induced interleucin-1 production of monocytes (man); type: cell-based; conditions: Homo sapiens, Monocyte
Protocol: as §1
2. Lipopolysaccharide-induced interleucin-1 production of monocytes (man)

5-Lipoxygenase = target: T1, 5-Lipoxygenase (Rattus norvegicus, UniProt P12527); assay: 5-Lipoxygenase inhibition in peritoneal macrophages (rat); type: cell-based
T1 construct: endogenous in cells; host or cells: rat peritoneal macrophages
T1 sequence (P12527 1-673): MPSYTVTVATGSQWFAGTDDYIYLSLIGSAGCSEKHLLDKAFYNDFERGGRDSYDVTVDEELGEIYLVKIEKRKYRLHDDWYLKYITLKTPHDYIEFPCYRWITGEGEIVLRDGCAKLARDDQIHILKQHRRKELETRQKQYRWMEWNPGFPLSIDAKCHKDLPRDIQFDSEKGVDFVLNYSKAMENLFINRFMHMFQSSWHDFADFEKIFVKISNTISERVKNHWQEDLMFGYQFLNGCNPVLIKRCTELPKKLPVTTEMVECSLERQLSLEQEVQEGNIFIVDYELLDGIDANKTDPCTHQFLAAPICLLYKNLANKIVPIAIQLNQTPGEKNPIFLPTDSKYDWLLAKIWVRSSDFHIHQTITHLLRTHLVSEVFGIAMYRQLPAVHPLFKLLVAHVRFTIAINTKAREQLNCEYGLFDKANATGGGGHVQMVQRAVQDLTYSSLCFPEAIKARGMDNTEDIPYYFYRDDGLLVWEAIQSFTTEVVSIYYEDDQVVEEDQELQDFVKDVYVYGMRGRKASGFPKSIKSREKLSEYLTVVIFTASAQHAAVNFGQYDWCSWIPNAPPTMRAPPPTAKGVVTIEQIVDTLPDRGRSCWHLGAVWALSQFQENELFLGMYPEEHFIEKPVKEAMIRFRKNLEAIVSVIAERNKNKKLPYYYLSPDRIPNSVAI
Protocol: as §1
4. 5-Lipoxygenase inhibition in peritoneal macrophages (rat)

[1] = tested on: Ovalbumin-induced asthmatic late phase eosinophilia in the lung; assay: Ovalbumin-induced asthmatic late phase eosinophilia in the lung (guinea pigs); type: in vivo
Protocol: as §1
1. Ovalbumin-induced asthmatic late phase eosinophilia in the lung (guinea pigs)

[2] = tested on: Asthma-induced by domestic dust mites; assay: Asthma induced by domestic dust mites (rabbits); type: in vivo; conditions: 10 mg/ml as aerosol for 2 minutes
Protocol: as §1
2. Asthma-induced by domestic dust mites (rabbits)
Lit.: J. Allergy Clin. Immunol. 87, 1991, p. 312 Administration/dosage: 10 mg/ml as aerosol for 2 minutes

phosphordiesterase = phosphordiesterase inhibition; type: biochemical
Text: Examples for the compounds of Formula I

[3] = tested on: Allergic bronchoconstriction; assay: Allergic bronchoconstriction according to Konzett-Rossler (rat); type: in vivo; conditions: iv
Protocol: as §1
3. Allergic bronchoconstriction according to Konzett-Rossler (rat)
Lit.: Naunyn-Schmiedeb. Arch. Exp. Pathol. Pharmakol. 195, 1940, p. 71-74

mast cells = assay: Allergically-induced histamine release from mast cells (rat); type: cell-based; conditions: Mast cell
Protocol: as §1
1. Allergically-induced histamine release from mast cells (rat)

Row | Compound | IC50 (alveolar macrophages) | IC50 (monocytes) | IC50 (5-Lipoxygenase) | inhibition of asthmatic late phase eosinophilia in the lung ([1]; 5 mg/kg/i.p.) | inhibition of asthmatic late phase eosinophilia in the lung ([1]; 10 mg/kg/i.p.) | Asthmatic late phase: inhibition [2] | Bronchial hyperreactivity: inhibition [2] | Bronchoconstriction: inhibition [2] | IC50 (phosphordiesterase) | ED50 [3] | IC50 (mast cells)
1 | O=c1[nH]c2ccc(O)nc2n2cccc12 [Example I, 4,5-Dihydro-8-hydroxy-4-oxo-pyrido[3,2-e]pyrrolo[1,2-a]pyrazine] | 6.1 µM | 4.5 µM | 12 µM | 67% | 98% | 51% | 51% | 49% | 32.2 µM | 0.5 mg/kg | 0.7 µM
2 | CNC(=O)CCCOc1ccc2[nH]c(=O)c3cccn3c2n1 [Example 98] |  |  |  |  |  |  |  |  | 15.1 µM |  | 
3 | CN(C(=O)CCCCOc1ccc2[nH]c(=O)c3cccn3c2n1)C1CCCCC1 [D 20169] |  |  |  |  |  |  |  |  | 7.34 µM |  | 
